pIC50: −log10 of the molar value. Where “and” joins values, the source holds several entries; their conditions need not be identical. Equal entries are not always repeated.
Tested on: K86415-001-R-J1-PDC complex spheroids, viability
Assay: Anticancer human tumor K86415-001-R-J1-PDC patient-derived lung adenocarcinoma cell line growth inhibition [RAS]
Conditions: for viability, T/C: stronger effect = lower value
Excerpt: RAS pathway inhibitors in Combinations in Complex Spheroids
A high-throughput screen of multi-cell type tumor spheroids was designed to identify active combinations of RAS pathway inhibitors and targeted small molecules. Complex spheroids include a stromal component modeled by human endothelial cells (HUVEC) and fibroblasts modeled by human mesenchymal stem cells (MSCs). The concentration ranges selected for each drug and investigational agent were based upon clinically achievable concentrations if the clinical Cmax of the agent was known.
Compounds. The drugs and investigational agents: abemaciclib (NSC768073), cobimetinib (NSC768068), divarasib (GDC6063, NSC841802), docetaxel (NSC628503), GDC-1971 (RLY-1971, NSC841576), gemcitabine (NSC613327), inavolisib (NSC800729), ipatasertib (NSC767898), KB-0742 (NSC834161), MRTX-1133 (NSC836407), osimertinib (NSC779217), RMC-4630 (NSC839698), RMC-6236 (NSC851965), RMC-6291 (NSC852671), Ro-3306 (NSC812927), sapanisertib (NSC764658), SN-38 (NSC673596), staurosporine (NSC755774), SY5609 (NSC837396), and tovorafenib (DAY101, NSC766906), were obtained from the National Cancer Institute (NCI) Developmental Therapeutics Program Chemical Repository. The FDA-approved anticancer drug set is available from the NCI Developmental Therapeutics Program. […] The stock solutions were prepared in dimethyl sulfoxide (DMSO, Sigma-Aldrich, St. Louis, MO, cat. D2650) at 800-fold the tested concentration and stored at -70 degrees C prior to their use. All drugs and investigational agents were tested over a range starting from a high concentration at or near the clinical Cmax and decreasing in half-log increments. If the clinical Cmax for an agent had not been determined, the highest concentration tested was 10 microM.
Cell Culture. All cells were maintained in an incubator at 37 degrees C and 5% CO2 with 95% humidity. The PDC lines were cultured according to standard operating procedures established by the NCI PDMR. All PDCs were thawed and cultured in Matrigel-coated flasks prepared with a working solution of 1X Ham's F-12 nutrient mix, without supplementation (Invitrogen, Waltham, MA, cat. 11765054), 100 U/mL penicillin-streptomycin (Invitrogen, cat. 15140122), and 2.5% Matrigel (Corning Inc., Corning, NY, cat. 354248) for the first three passages. The 362531-283-R-J2-PDC and 782815-120-R-J1-PDC lines were cultured in 6C/Colon 1B media, which includes advanced DMEM/F-12 (Thermo Fisher Scientific, cat. 12634028), 10 mM HEPES (Thermo Fisher Scientific, cat. 15630080), 1X GlutaMAX supplement (Thermo Fisher Scientific, cat. 35050061), 0.1 mg/mL primocin (InvivoGen, San Diego, CA, cat. ant-pm-2), 10% defined fetal bovine serum, heat inactivated (HyClone Laboratories Inc., Logan, UT, cat. SH30070.03HI), 50% L-WRN conditioned media (ATCC, cat. CRL-3276), 1.25 mM N-Acetyl-L-cysteine (Sigma-Aldrich, cat. A9165), 10 mM nicotinamide (Sigma-Aldrich, cat. N0636), 1X B-27 supplement (Thermo Fisher Scientific, cat. 17504044), 1X N-2 supplement (Thermo Fisher Scientific, cat. 17502048), 50 ng/mL human EGF (Thermo Fisher Scientific, cat. PHG0311), and 10 microM Y-27632 dihydrochloride (Tocris Bioscience, cat. 1254). The K12877-001-R-J1-PDC line was cultured in 6I media, which includes all 6C/Colon 1B media plus 10 ng/mL human FGF-10 (PeproTech, cat. 100-26), 1 ng/mL human FGF-2 (PeproTech, cat. 100-18B), 1 µM prostaglandin E2 (Tocris Bioscience, cat. 2296), […] hydrocortisone (Sigma-Aldrich, cat. H4001), and […] bovine insulin (Sigma-Aldrich, cat. I6634). The K86415-001-R-J1-PDC line was cultured in 6D media, which includes all 6C/Colon 1B media components minus the L-WRN conditioned media. The 485176-168-R4-J1-PDC was cultured in PANC media, which includes all 6C/Colon 1B media plus 100 ng/mL human FGF-10 (PeproTech, cat. 100-26), 500 nM SB-431542 (Selleckchem, cat. S1067), and 10 nM gastrin (Tocris Bioscience, cat. 3006). […]

[1] = compound alone, run of 07/15/2024
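Further: spheroids exposed to agents for seven days before readout.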

Row | IC50 [1] | pIC50 [1] | pIC50 (curve of compound) | IC50 (curve of compound) | SMILES | viability, T/C (compound 0.0316 µM) | viability, T/C (compound 0.1 µM) | viability, T/C (compound 0.316 µM) | viability, T/C (compound 1 µM) | viability, T/C (compound 3.16 µM) | viability, T/C (compound 10 µM) | viability, T/C (compound 0.00316 µM) | viability, T/C (compound 0.01 µM) | viability, T/C (compound 0.000316 µM) | viability, T/C (compound 0.001 µM) | viability, T/C (compound 0.000949 µM) | viability, T/C (compound 0.003 µM) | viability, T/C (compound 0.00949 µM) | viability, T/C (compound 0.03 µM) | viability, T/C (compound 0.0949 µM) | viability, T/C (compound 0.3 µM)
1 | 1.81 µM [middle of 7 runs] |  |  |  | C#Cc1c(F)ccc2cc(O)cc(-c3ncc4c(N5CC6CCC(C5)N6)nc(OCC56CCCN5CC(F)C6)nc4c3F)c12 (stereo not drawn) | 101% [middle of 8 runs] | 106% [middle of 8 runs] | 88.2% [middle of 8 runs] | 65.2% [middle of 8 runs] | 38.2% [middle of 8 runs] | 17.8% [middle of 8 runs] |  |  |  |  |  |  |  |  |  | 
2 |  | > 8.50 | > 8.50 |  | C=CC(=O)N1CCN(c2nc(OCC3CCCN3C)nc3c(F)c(-c4nc(N)cc(C)c4C(F)(F)F)c(Cl)cc23)C(C)C1 (stereo not drawn) | 11.5% [middle of 12 runs] | 9.89% [middle of 12 runs] | 10.8% [middle of 12 runs] | 10.7% [middle of 11 runs] |  |  | 18.3% [middle of 12 runs] | 13.4% [middle of 12 runs] |  |  |  |  |  |  |  | 
3 |  |  |  | 659 nM [middle of 4 runs] | C=CC(=O)Nc1cc(Nc2nccc(-c3cn(C)c4ccccc34)n2)c(OC)cc1N(C)CCN(C)C | 101% [middle of 4 runs] | 85.1% (2×) and 93.4% and 76.6% | 67.2% [middle of 4 runs] | 40.9% [middle of 4 runs] |  |  | 105% [middle of 4 runs] | 98.8% [middle of 4 runs] |  |  |  |  |  |  |  | 
4 |  |  |  |  | CC(C)NCC(C(=O)N1CCN(c2ncnc3c2C(C)CC3O)CC1)c1ccc(Cl)cc1 (stereo not drawn) | 109% [middle of 4 runs] |  | 97.9% [middle of 4 runs] | 92.2% [middle of 4 runs] | 65% [middle of 4 runs] | 49.1% [middle of 4 runs] |  |  |  |  |  |  |  |  |  | 
5 |  |  |  | 52.6 nM [middle of 4 runs] | CC(C)n1nc(-c2ccc3oc(N)nc3c2)c2c(N)ncnc21 | 64.5% [middle of 4 runs] | 32.2% [middle of 4 runs] |  |  |  |  | 104% [middle of 4 runs] | 96.1% [middle of 4 runs] | 108% [middle of 4 runs] | 104% [middle of 4 runs] |  |  |  |  |  | 
6 |  |  |  | 1.48 µM [middle of 4 runs] | CC(Nc1ccc2c(c1)OCCn1cc(N3C(=O)OCC3C(F)F)nc1-2)C(N)=O (stereo not drawn) | 94.1% [middle of 4 runs] | 86% [middle of 4 runs] | 71.7% [middle of 4 runs] | 54.5% [middle of 4 runs] | 40.5% [middle of 4 runs] | 29.4% [middle of 4 runs] |  |  |  |  |  |  |  |  |  | 
7 |  |  | < 6.52 |  | CC1(C)CCC(Nc2ncc(C(F)(F)F)c(-c3c[nH]c4c(P(C)(C)=O)c(C#N)ccc34)n2)CN1 (stereo not drawn) |  |  |  |  |  |  |  |  |  |  | 110% and 123% (2×) and 109% | 120% [middle of 4 runs] | 75.7% [middle of 4 runs] | 58.1% [middle of 4 runs] | 60.8% [middle of 4 runs] | 60.1% [middle of 4 runs]
